ChEMBL document CHEMBL3739426, “Synthesis and biological evaluation of novel 2-isoxazoline fused cyclopentane derivatives as potential antimicrobial and anticancer agents” (Medchemcomm, 2015)
Converted amounts (≈) assume the structure as drawn. The source made the active and inactive calls. No cut-off for these calls is given here.

Tests used:
[1] = test system: Pseudomonas sp.; experiment: Antimicrobial activity against Pseudomonas sp. by cup plate diffusion method; type: functional
[2] = test system: Escherichia coli; experiment: Antimicrobial activity against Escherichia coli by cup plate diffusion method; type: functional
[3] = test system: MCF7; experiment: Induction of apoptosis in human MCF7 cells assessed live cells at 10 ug/ml after 48 hrs using annexin V/propidium iodide staining by muse cell analyzer analysis (reference value: 81.07%); type: functional
[4] = test system: MCF7; experiment: Induction of apoptosis in human MCF7 cells assessed as formation of extremely condensed chromatin at 5 ug/ml after 48 hrs using acridine orange and ethidium bromide staining by light microscopic analysis; type: functional, cell-based
[5] = test system: MCF7; experiment: Cytotoxicity against human MCF7 cells after 48 hrs by MTT assay; type: functional, cell-based; conditions: MCF7, 48 h
[6] = test system: Priestia megaterium; experiment: Antimicrobial activity against Bacillus megaterium by cup plate diffusion method; type: functional
[7] = test system: HT-29; experiment: Cytotoxicity against human HT-29 cells after 48 hrs by MTT assay; type: functional, cell-based; conditions: HT-29, 48 h
[8] = test system: MCF7; experiment: Induction of apoptosis in human MCF7 cells assessed dead cells at 5 ug/ml after 48 hrs using annexin V/propidium iodide staining by muse cell analyzer analysis (reference value: 1.04%); type: functional
[9] = test system: MCF7; experiment: Induction of apoptosis in human MCF7 cells assessed early apoptotic cells at 10 ug/ml after 48 hrs using annexin V/propidium iodide staining by muse cell analyzer analysis (reference value: 6%); type: functional
[10] = test system: MCF7; experiment: Induction of apoptosis in human MCF7 cells assessed as formation of cell membrane blebbing at 10 ug/ml after 48 hrs using acridine orange and ethidium bromide staining by light microscopic analysis; type: functional, cell-based
[11] = Cytotoxicity against human PC3 cells after 48 hrs by MTT assay; type: functional, cell-based; conditions: PC-3, 48 h
[12] = test system: MCF7; experiment: Induction of apoptosis in human MCF7 cells assessed live cells at 5 ug/ml after 48 hrs using annexin V/propidium iodide staining by muse cell analyzer analysis (reference value: 81.07%); type: functional
[13] = test system: MCF7; experiment: Induction of apoptosis in human MCF7 cells assessed early apoptotic cells at 5 ug/ml after 48 hrs using annexin V/propidium iodide staining by muse cell analyzer analysis (reference value: 6%); type: functional
[14] = test system: MCF7; experiment: Cell cycle arrest in human MCF7 cells assessed as accumulation at G0/G1 phase at 10 ug/ml after 48 hrs using propidium iodide staining by flow cytometry analysis (reference value: 47.3%); type: functional
[15] = test system: Candida albicans; experiment: Antimicrobial activity against Candida albicans by cup plate diffusion method; type: functional
[16] = test system: MCF7; experiment: Cell cycle arrest in human MCF7 cells assessed as accumulation at G0/G1 phase at 5 ug/ml after 48 hrs using propidium iodide staining by flow cytometry analysis (reference value: 47.3%); type: functional
[17] = test system: Bacillus subtilis; experiment: Antimicrobial activity against Bacillus subtilis by cup plate diffusion method; type: functional
[18] = test system: A549; experiment: Cytotoxicity against human A549 cells after 48 hrs by MTT assay; type: functional, cell-based; conditions: A549, 48 h
[19] = test system: MCF7; experiment: Induction of apoptosis in human MCF7 cells assessed as decrease of mitochondrial membrane potential after 12 hrs using JC-1 dye by fluorescence microscopic analysis; type: functional, cell-based
[20] = test system: MCF7; experiment: Induction of apoptosis in human MCF7 cells assessed as formation of nuclear fragmentation at 10 ug/ml after 48 hrs using acridine orange and ethidium bromide staining by light microscopic analysis; type: functional, cell-based
[21] = test system: HeLa; experiment: Cytotoxicity against human HeLa cells after 48 hrs by MTT assay; type: functional, cell-based
[22] = test system: MCF7; experiment: Induction of apoptosis in human MCF7 cells assessed as formation of chromatin condensation at 10 ug/ml after 48 hrs using acridine orange and ethidium bromide staining by light microscopic analysis; type: functional, cell-based
[23] = test system: MCF7; experiment: Cell cycle arrest in human MCF7 cells assessed as accumulation at S phase at 10 ug/ml after 48 hrs using propidium iodide staining by flow cytometry analysis (reference value: 12.7%); type: functional
[24] = test system: MCF7; experiment: Induction of apoptosis in human MCF7 cells assessed late apoptotic cells at 5 ug/ml after 48 hrs using annexin V/propidium iodide staining by muse cell analyzer analysis (reference value: 11.89%); type: functional
[25] = test system: MCF7; experiment: Induction of apoptosis in human MCF7 cells assessed dead cells at 10 ug/ml after 48 hrs using annexin V/propidium iodide staining by muse cell analyzer analysis (reference value: 1.04%); type: functional
[26] = test system: MCF7; experiment: Cell cycle arrest in human MCF7 cells assessed as accumulation at G2/M phase at 5 ug/ml after 48 hrs using propidium iodide staining by flow cytometry analysis (reference value: 25.8%); type: functional
[27] = test system: MCF7; experiment: Induction of apoptosis in human MCF7 cells assessed late apoptotic cells at 10 ug/ml after 48 hrs using annexin V/propidium iodide staining by muse cell analyzer analysis (reference value: 11.89%); type: functional
[28] = test system: MCF7; experiment: Cell cycle arrest in human MCF7 cells assessed as accumulation at S phase at 5 ug/ml after 48 hrs using propidium iodide staining by flow cytometry analysis (reference value: 12.7%); type: functional
[29] = test system: MCF7; experiment: Cell cycle arrest in human MCF7 cells assessed as accumulation at G2/M phase at 10 ug/ml after 48 hrs using propidium iodide staining by flow cytometry analysis (reference value: 25.8%); type: functional
[30] = test system: MCF7; experiment: Induction of apoptosis in human MCF7 cells assessed as formation of intact nuclei at 5 ug/ml after 48 hrs using acridine orange and ethidium bromide staining by light microscopic analysis; type: functional, cell-based

Structure (SMILES): OC[C@@H]1C[C@H](CO)[C@@H]2C(c3ccc4ccccc4c3)=NO[C@H]12
- MIC [1]: > 100 µg/mL
- MIC [2]: > 100 µg/mL
- Activity [3]: 32.21%
- Activity [4]: Active
- IC50 [5]: 11.5 µg/mL (≈ 38.7 µM)
- MIC [6]: 26 µg/mL (≈ 87.4 µM)
- IC50 [7]: 14.3 µg/mL (≈ 48.1 µM)
- Activity [8]: 4.06%
- Activity [9]: 48.32%
- Activity [10]: Active
- IC50 [11]: 48.4 µg/mL (≈ 163 µM)
- Activity [12]: 55.08%
- Activity [13]: 24.94%
- Activity [14]: 35.7%
- MIC [15]: > 100 µg/mL
- Activity [16]: 44.7%
- MIC [17]: 26 µg/mL (≈ 87.4 µM)
- IC50 [18]: > 50 µg/mL
- Activity [19]: Dose-dependent effect
- Activity [20]: Active
- IC50 [21]: 24.5 µg/mL (≈ 82.4 µM)
- Activity [22]: Active
- Activity [23]: 27.5%
- Activity [24]: 15.91%
- Activity [25]: 0.61%
- Activity [26]: 24.8%
- Activity [27]: 18.85%
- Activity [28]: 14.9%
- Activity [29]: 22.6%
- Activity [30]: Active
